Key:
[1] = (§1) Compound were evaluated for its binding affinity against vitamin K dependent carboxylation
[2] = as §1; remark: listed apart in the source

H-FLEEV-OH showed a Ki [1] of 20 mM.
`CC(C)C[C@H](NC(=O)[C@@H](N)Cc1ccccc1)C(=O)N[C@@H](CCC1N=NN=N1)C(=O)N[C@@H](CCC1N=NN=N1)C(=O)N[C@H](C(=O)O)C(C)C` showed a Ki [1] of 3 mM and a Km [2] of 3000 µM.
Work on `CC(C)C[C@H](NC(=O)[C@@H](N)Cc1ccccc1)C(=O)N[C@@H](CCc1nn[nH]n1)C(=O)N[C@@H](CCc1nn[nH]n1)C(=O)N[C@H](C(=O)O)C(C)C` yielded a Ki [1] of 3.1 mM.
